ChEMBL document CHEMBL4613206, “Recent applications of hydantoin and thiohydantoin in medicinal chemistry” (Eur J Med Chem, 2019)
Converted amounts (≈) assume the structure as drawn. Blank lines part the entries; values can stand above or below the compound they belong to.

How the values were obtained:
Tyrosinase = molecular target: T1, Tyrosinase (Homo sapiens, UniProt P14679); assay: Inhibition of tyrosinase (unknown origin)
T1 sequence (P14679 whole entry): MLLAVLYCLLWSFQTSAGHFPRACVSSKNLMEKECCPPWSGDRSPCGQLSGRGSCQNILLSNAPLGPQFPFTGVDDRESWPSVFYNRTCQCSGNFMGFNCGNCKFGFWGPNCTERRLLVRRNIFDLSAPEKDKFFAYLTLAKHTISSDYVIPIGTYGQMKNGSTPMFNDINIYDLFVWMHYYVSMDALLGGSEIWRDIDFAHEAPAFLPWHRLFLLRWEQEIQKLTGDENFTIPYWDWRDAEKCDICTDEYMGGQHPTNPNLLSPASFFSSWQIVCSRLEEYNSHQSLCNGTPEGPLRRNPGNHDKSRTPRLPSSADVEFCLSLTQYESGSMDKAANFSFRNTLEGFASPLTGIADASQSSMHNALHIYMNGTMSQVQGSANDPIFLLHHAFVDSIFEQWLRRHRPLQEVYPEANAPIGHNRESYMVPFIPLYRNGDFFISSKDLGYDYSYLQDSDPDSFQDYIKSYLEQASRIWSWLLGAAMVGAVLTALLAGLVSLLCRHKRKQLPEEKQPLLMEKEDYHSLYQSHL

Escherichia coli [1] = assay: Antibacterial activity against Escherichia coli ATCC 25922; assay type: functional
Pseudomonas aeruginosa [2] = assay: Antibacterial activity against Pseudomonas aeruginosa ATCC 27853; assay type: functional
Enterococcus faecalis [3] = assay: Antibacterial activity against Enterococcus faecalis ATCC 29212; assay type: functional
Staphylococcus aureus [4] = assay: Antibacterial activity against Staphylococcus aureus ATCC 25923; assay type: functional
Staphylococcus aureus [5] = assay: Antibacterial activity against methicillin resistant Staphylococcus aureus ATCC 43300; assay type: functional
Mus musculus [6] = assay: Anti-inflammatory activity in xylene-induced Kunming mouse assessed as inhibition of ear edema administered as po dose 1 hr before xylene administration and measured after 1 hr xylene administration relative to control; assay type: functional; set-up: scale not given: the % may be the effect or the level left
Mus musculus [7] = assay: Antitussive activity in ammonia aerosol-stimulated Kunming mouse assessed as inhibition of number of cough administered as po dose 1 hr before ammonia aerosol stimulation (reference value: 42); assay type: functional
HEp-2 = assay: Cytotoxicity against human Hep2 cells assessed as reduction in cell viability by MTT assay; assay type: functional, cell-based
[8] = molecular target: T2, NAD-dependent protein deacetylase sirtuin-1 (Homo sapiens, UniProt Q96EB6); assay: Inhibition of recombinant human SIRT1 after 30 mins
T2 sequence (Q96EB6 whole entry): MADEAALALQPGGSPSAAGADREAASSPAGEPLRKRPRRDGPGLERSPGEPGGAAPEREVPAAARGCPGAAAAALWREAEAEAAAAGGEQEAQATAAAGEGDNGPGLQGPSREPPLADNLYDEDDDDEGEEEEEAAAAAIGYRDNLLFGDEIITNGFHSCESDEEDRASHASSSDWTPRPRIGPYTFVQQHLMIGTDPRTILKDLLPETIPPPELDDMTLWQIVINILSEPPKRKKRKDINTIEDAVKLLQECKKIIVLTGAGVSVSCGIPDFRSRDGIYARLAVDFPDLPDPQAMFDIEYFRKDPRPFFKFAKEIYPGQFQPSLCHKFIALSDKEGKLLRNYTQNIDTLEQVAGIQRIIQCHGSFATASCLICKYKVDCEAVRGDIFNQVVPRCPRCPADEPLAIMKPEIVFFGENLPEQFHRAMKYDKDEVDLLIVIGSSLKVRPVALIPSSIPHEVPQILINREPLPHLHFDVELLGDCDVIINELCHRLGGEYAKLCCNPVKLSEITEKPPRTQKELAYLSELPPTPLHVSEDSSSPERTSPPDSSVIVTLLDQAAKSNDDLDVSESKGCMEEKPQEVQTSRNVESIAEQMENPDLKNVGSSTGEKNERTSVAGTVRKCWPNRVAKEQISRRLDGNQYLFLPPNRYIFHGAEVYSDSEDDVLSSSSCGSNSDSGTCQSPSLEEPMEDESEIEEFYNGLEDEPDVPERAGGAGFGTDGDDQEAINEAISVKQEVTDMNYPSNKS

[9] = molecular target: T3, NAD-dependent protein deacetylase sirtuin-2 (Homo sapiens, UniProt Q8IXJ6); assay: Inhibition of recombinant human SIRT2 after 30 mins
T3 sequence (Q8IXJ6 whole entry): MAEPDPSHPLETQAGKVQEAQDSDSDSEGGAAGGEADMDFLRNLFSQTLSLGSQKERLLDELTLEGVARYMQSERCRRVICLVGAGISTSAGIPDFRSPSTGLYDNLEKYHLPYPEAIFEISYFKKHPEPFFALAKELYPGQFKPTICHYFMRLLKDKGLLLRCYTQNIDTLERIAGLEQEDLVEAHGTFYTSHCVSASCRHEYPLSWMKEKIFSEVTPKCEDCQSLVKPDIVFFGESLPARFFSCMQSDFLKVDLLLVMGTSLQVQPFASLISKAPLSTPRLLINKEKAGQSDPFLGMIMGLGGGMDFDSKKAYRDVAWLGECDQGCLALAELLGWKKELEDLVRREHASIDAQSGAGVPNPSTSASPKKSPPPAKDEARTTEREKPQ

Escherichia coli [10] = assay: Antibacterial activity against Escherichia coli; assay type: functional
Staphylococcus aureus [11] = assay: Antibacterial activity against methicillin resistant Staphylococcus aureus; assay type: functional
[12] = system: Staphylococcus epidermidis; assay: Antibacterial activity against methicillin resistant Staphylococcus epidermidis; assay type: functional
Pseudomonas aeruginosa [13] = assay: Antibacterial activity against Pseudomonas aeruginosa; assay type: functional
Klebsiella pneumoniae = assay: Antibacterial activity against Klebsiella pneumoniae; assay type: functional
Enterococcus faecalis [14] = assay: Antibacterial activity against Enterococcus faecalis; assay type: functional
Staphylococcus aureus [15] = assay: Antibacterial activity against Staphylococcus aureus; assay type: functional

IC50 (Tyrosinase): 7.36 µM
Compound: COc1ccccc1N1CCN(CCCCN2C(=O)N(C)C(=O)C2(c2ccccc2)c2ccccc2)CC1

Compound: O=C1CN(/N=C2\C(=O)N(Cc3ccc(F)cc3)c3ccccc32)C(=O)N1
MIC (Escherichia coli [1]): 6.25 to 12.5 µg/mL (≈ 17.7 to 35.5 µM)
MIC (Pseudomonas aeruginosa [2]): 12.5 µg/mL (≈ 35.5 µM)
MIC (Enterococcus faecalis [3]): 12.5 µg/mL (≈ 35.5 µM)
MIC (Staphylococcus aureus [4]): 6.25 µg/mL (≈ 17.7 µM)
MIC (Staphylococcus aureus [5]): 6.25 µg/mL (≈ 17.7 µM)

Compound: O=C1CN(/N=C2\C(=O)N(Cc3ccccc3F)c3ccccc32)C(=O)N1
MIC (Escherichia coli [1]): 6.25 to 12.5 µg/mL (≈ 17.7 to 35.5 µM)
MIC (Pseudomonas aeruginosa [2]): 12.5 µg/mL (≈ 35.5 µM)
MIC (Enterococcus faecalis [3]): 12.5 µg/mL (≈ 35.5 µM)
MIC (Staphylococcus aureus [4]): 6.25 µg/mL (≈ 17.7 µM)
MIC (Staphylococcus aureus [5]): 6.25 µg/mL (≈ 17.7 µM)

Compound: CC(C)Cc1ccc(C(C)C(=O)N2C(=O)CN(C)C2=O)cc1 (stereo unspecified)
Activity (Mus musculus [6]): 54.61%
Number of coughs (Mus musculus [7]): 15.5

Compound: CC(C)CC1NC(=O)N(OCc2cccc(Cl)c2)C1=O (stereo unspecified)
IC50 (HEp-2): 0.04 µM

Compound: CC(C)C1NC(=O)N(OCc2cccc(Cl)c2)C1=O (stereo unspecified)
IC50 (HEp-2): 0.07 µM

Compound: CC(C)Cc1ccc(C(C)C(=O)O)cc1 (stereo unspecified) [IBUPROFEN]
Activity (Mus musculus [6]): 28.07%

IC50 [8]: 38.6 µM
IC50 [9]: 38.8 µM
Compound: O=C1N/C(=C\c2ccc(N3CCCC3)cc2)C(=O)N1Cc1ccc(Cl)cc1

Compound: CCCCCCCCCCCC(=O)N[C@@H](CCCCN)CN1CC(=O)N(c2cccc(Cl)c2)C1=O
MIC (Escherichia coli [10]): 1 µg/mL
MIC (Staphylococcus aureus [11]): 0.5 µg/mL (≈ 0.986 µM)
MIC [12]: 0.5 µg/mL (≈ 0.986 µM)
MIC (Pseudomonas aeruginosa [13]): 1 µg/mL (≈ 1.97 µM)
MIC (Klebsiella pneumoniae): 0.78 µg/mL (≈ 1.54 µM)
MIC (Enterococcus faecalis [14]): 0.5 µg/mL (≈ 0.986 µM)

MIC (Staphylococcus aureus [15]): 0.044 µM (≈ 0.0144 µg/mL)
MIC (Escherichia coli [10]): 0.088 µM
Compound: O=C1NC(CN2CCCC2)C(=O)N1c1c(Cl)cccc1Cl (stereo unspecified)

IC50 [8]: 94 µM
IC50 [9]: 68.7 µM
Compound: CCN(CC)c1ccc(/C=C2\NC(=O)N(Cc3ccc(C)cc3)C2=O)cc1

IC50 (Tyrosinase): 1.07 µM
Compound: COC(=O)CN1C(=O)N(CCCCN2CCN(c3ccccc3OC)CC2)C(c2ccccc2)(c2ccccc2)C1=O

IC50 [8]: 32.1 µM
IC50 [9]: 37.7 µM
Compound: O=C1N/C(=C\c2ccc(O)c(Cl)c2)C(=O)N1Cc1ccc(F)cc1

Compound: O=C1CN(/N=C2\C(=O)N(Cc3cccc(F)c3)c3ccccc32)C(=O)N1
MIC (Escherichia coli [1]): 6.25 to 12.5 µg/mL (≈ 17.7 to 35.5 µM)
MIC (Pseudomonas aeruginosa [2]): 12.5 µg/mL (≈ 35.5 µM)
MIC (Enterococcus faecalis [3]): 12.5 µg/mL (≈ 35.5 µM)
MIC (Staphylococcus aureus [4]): 6.25 µg/mL (≈ 17.7 µM)
MIC (Staphylococcus aureus [5]): 6.25 µg/mL (≈ 17.7 µM)

Compound: CC(C)Cc1ccc(C(C)C(=O)N2C(=O)CNC2=O)cc1 (stereo unspecified)
Activity (Mus musculus [6]): 24.51%
Number of coughs (Mus musculus [7]): 18.3

Compound: CC(C)Cc1ccc(C(C)C(=O)N2C(=O)N(C)C(C)(C)C2=O)cc1 (stereo unspecified)
Activity (Mus musculus [6]): 25%
Number of coughs (Mus musculus [7]): 18.6

Compound: CC(C)CC1NC(=O)N(OCc2ccc(Br)cc2)C1=O (stereo unspecified)
IC50 (HEp-2): 0.15 µM
